Series [1] has as its system P-gp. The conditions noted are these: ref Ruike et al., 2010; cited from earlier work.
The nature of series [2]: PK studies in beagle dogs. The note with it: dog, in vivo; beagle dogs, same dose (2 mg/kg); prior preliminary experiment by the team, unpublished results; read-out: absolute bioavailability. Type of series: in vivo. The method, then: For the PK studies in rats and dogs, a total of 18 SD rats and 15 male beagle dogs were randomly divided into three groups, with six rats or five dogs per group, respectively. Prior to the experiments, all animals underwent a 12-h fasting period, while having free access to water. The animals were administered single oral doses of ammoxetine in three different dose levels: 8 mg/kg, 20 mg/kg, and 50 mg/kg for rats, and 2 mg/kg, 5 mg/kg, and 12.5 mg/kg for dogs, representing low, medium, and high doses. Serial blood samples were collected from the rats at 0, 2, 5, 15, and 30 min, as well as 1, 2, 4, 6, 8, 12, and 24 h post-dosing. For the dogs, blood samples were collected at 0, 5, 15, 30, and 45 min, as well as 1, 2, 4, 6, 8, 12, and 24 h post-dosing. Approximately 0.3 mL of blood was collected from the rats, while 2 mL of blood was collected from the dogs. The blood samples were collected into heparinized tubes. Following centrifugation, plasma samples were obtained and stored at −30°C until further analysis.
For the absolute bioavailability (F, %) study in dogs, the dogs initially received a single gastric gavage of a low dose (2 mg/kg) of ammoxetine, followed by a 1-week washout period. After the washout, the same dose of ammoxetine was administered intravenously (i.v.). To assess the effects of nonfasting on ammoxetine PK, dogs that received a medium dose (5 mg/kg) of ammoxetine via gastric gavage underwent a radical washout period of 1 week. Subsequently, they were administered the same dose of ammoxetine via gastric gavage under nonfasting conditions. To compare sex differences in ammoxetine PK, an additional five female beagle dogs were administered a medium dose (5 mg/kg) of ammoxetine via gastric gavage after a 12-h overnight fast. Blood samples (2 mL) were collected from these dogs into heparinized tubes at predose and at specified time points: 5, 15, 30, and 45 min, as well as 1, 2, 4, 6, 8, 12, and 24 h postdose. For the repeat-dose study, after completing blood collection during the initial administration, dogs receiving a single gastric gavage of a medium dose (5 mg/kg) of ammoxetine under fasting conditions were subsequently orally dosed with seven repeat doses of ammoxetine (5 mg/kg) every 12 h. Trough blood samples were collected before the fourth to last administration to ensure steady-state blood concentrations (C ss ) were achieved. Approximately 2 mL of blood was collected at specified time points after the last dose and transferred into heparinized tubes. All blood samples were then centrifuged at 4,000 r/min for 20 min to obtain plasma samples, which were stored at −30°C until analysis.
To determine the concentration of ammoxetine, 100 μL of L-phencynonate (IS, 50 ng/mL) and 300 μL of methanol were added to 100 μL of plasma samples from rats or dogs. After thorough vortexing, the mixture was centrifuged at 13,800×g for 10 min. The supernatants were then subjected to analysis using LC-MS-MS methods. PK parameters were calculated using DAS (Drug And Statistics for Windows) version 2.0, developed by the Shanghai University of Traditional Chinese Medicine, Shanghai, China. The F was determined by comparing the plasma area under the concentration-time curve (AUC) values after oral (p.o.) and intravenous (i.v.) administration of ammoxetine. F was calculated using the formula: F=AUCp.o./AUCi.v.×100% . Statistical analyses were performed using OriginPro 8.6 software. Paired sample or student’s t-test, as well as one-way ANOVA, were employed to compare the means of two or three groups, with a significance level set at p < 0.05.

This is an account of results in PMC11579541, “In vitro, in vivo, and in silico approaches for evaluating the preclinical DMPK profiles of ammoxetine, a novel chiral serotonin and norepinephrine reuptake inhibitor” (Frontiers in Pharmacology, 2024).

Molecules are shown by their SMILES.

With `CNCC[C@H](Oc1cccc2ccccc12)c1cccs1` [duloxetine, reference compound], the “action on P-gp” value in series [1] is “P-gp inhibitor”. Also, the bioavailability (as a rule, dose-corrected exposure relative to a reference, in per cent) in series [2] was ~33%.
